Measurements from patent publication US7659277B2, “Ubiquitin ligase inhibitors and methods related thereto” (Proteologies, Ltd., priority 2003, dated 2010).
Where two headings read alike, the source gives them in different places.

Legend:
Hmdm2 = Hmdm2 (Homo sapiens, UniProt Q00987); experiment: Selectivity (% A in 1 μM), ubiquitin ligase activity of Hmdm2; assay type: biochemical; conditions: read-out: Selectivity (% A* in 1 μM) Hmdm2
POSH = biological target: T1, POSH (Homo sapiens, UniProt Q7Z6J0); experiment: IC50 assay procedure: GST-POSH auto-ubiquitination, homogeneous time-resolved fluorescence (Ub-cryptate / anti-GST XL665); assay type: biochemical; conditions: ubiquitin ligase activity of POSH; GST-POSH 33 nM, 30 min preincubation
T1 construct: GST-POSH lot NB81/p.118 3.6 mg/ml; fused on or other part: GST tag, used for detection with anti-GST XL665
T1 sequence (Q7Z6J0 1-269 limits assumed): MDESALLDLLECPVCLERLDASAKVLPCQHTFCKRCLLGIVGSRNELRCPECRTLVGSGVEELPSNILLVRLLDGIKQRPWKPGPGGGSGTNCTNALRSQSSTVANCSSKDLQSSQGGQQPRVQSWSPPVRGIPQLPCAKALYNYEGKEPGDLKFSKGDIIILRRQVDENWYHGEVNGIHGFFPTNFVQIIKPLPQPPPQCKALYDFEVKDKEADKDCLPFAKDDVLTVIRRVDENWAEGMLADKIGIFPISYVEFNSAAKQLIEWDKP
Outline: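 GST-POSH (33 nM) preincubated 30 min at RT with compounds (DMSO dilution series), then added to E1/E2/Eu-cryptate-ubiquitin enzyme mix for 30 min at 37 °C. Stopped with EDTA, anti-GST XL665 added 45 min at RT; HTRF signal of POSH auto-ubiquitination read, triplicates, IC50 from concentration series.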

[1] = % activity at 1 μM compound, control is related to 100% activity, HTS protocol

Chain of Hmdm2 (Q00987 whole entry): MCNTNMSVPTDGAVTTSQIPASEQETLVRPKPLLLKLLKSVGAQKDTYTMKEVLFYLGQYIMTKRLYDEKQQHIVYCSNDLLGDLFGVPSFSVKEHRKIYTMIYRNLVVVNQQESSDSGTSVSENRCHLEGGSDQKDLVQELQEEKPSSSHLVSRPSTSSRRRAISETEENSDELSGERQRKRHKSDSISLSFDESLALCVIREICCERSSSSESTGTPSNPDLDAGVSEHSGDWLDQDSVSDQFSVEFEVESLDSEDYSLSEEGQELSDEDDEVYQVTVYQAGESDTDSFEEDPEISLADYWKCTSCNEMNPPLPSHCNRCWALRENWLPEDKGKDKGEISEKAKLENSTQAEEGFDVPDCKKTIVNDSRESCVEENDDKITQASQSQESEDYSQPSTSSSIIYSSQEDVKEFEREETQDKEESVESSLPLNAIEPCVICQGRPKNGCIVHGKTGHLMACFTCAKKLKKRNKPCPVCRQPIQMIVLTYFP

SMILES	remaining activity at 1 µM (Hmdm2) [%]	IC50 (POSH) [nM]	remaining activity at 1 µM (Hmdm2; [1]) [%]
O=C(Nc1cccc2c(NC(=O)C3C4CCCCC43)cccc12)C1C2CCCCC21 (stereo not drawn) [Compound 97]	123	600	–
COc1cc(C2Nc3ccccc3NC3=C2C(=O)CC(C)(C)C3)cc(Br)c1O (stereo not drawn) [Compound 102]	–	800	97
Cc1cc(O)c(C(=O)/C=C/c2cccc(I)c2)c(=O)o1 [Compound 87]	119	800	–
COc1ccc(Nc2ccc(O)c3c2C(=O)c2ccccc2C3=O)cc1 [Compound 100]	–	700	75
Cc1ccc(C(=O)NN=C2CCC(=NNC(=O)c3ccc(C)cc3)CC2)cc1 [Compound 93]	–	1300	106
COC(=O)C1=C(C(=O)OC)SC(=C2C(=S)C(C)(C)N(C(C)=O)c3cc(C)ccc32)S1 [Compound 99]	–	1500	101
Cc1[nH]c(=O)c(C(=O)/C=C/c2ccccc2F)c2c1CCCC2 [Compound 95]	–	1000	98
O=C(NCc1ccc(Cl)cc1)C(=O)Nc1ccccc1 [Compound 104]	–	1000	145
O=C(Cc1ccccc1)N1N=CCC1(O)c1ccc(F)cc1 (stereo not drawn) [Compound 94]	–	1000	103
COc1ccc(C(=O)CC2=C(O)C(=O)c3ccccc3C2=O)cc1 [Compound 89]	–	1000	79
O=C(NC(C(Cl)(Cl)Cl)S(=O)(=O)c1ccccc1)c1ccc(Cl)cc1Cl (stereo not drawn) [Compound 88]	118	250	–
O=C(/C=C/c1cccnc1)c1ccc(C(=O)/C=C/c2cccnc2)cc1 [Compound 92]	–	500	105
O=c1oc2ccccc2c(O)c1C(=S)Nc1ccccc1 [Compound 96]	90	500	–
O=C(O)COc1ccc2c(c1)oc(=O)c1ccccc12 [Compound 85]	94	700	–
Cc1cc(OC(=O)Cn2c(=O)sc3ccccc32)ccc1Cl [Compound 103]	100	400	–
O=C1c2ccccc2-c2nc3nonc3nc21 [Compound 91]	62	300	–
O=C1NC(=O)N(c2ccccc2)C(=O)/C1=C\c1ccc2c(c1)OCO2 [Compound 4]	–	800	105
CN(C)c1ccc(/C=C2/C(=O)NC(=O)N(C3CCCCC3)C2=O)cc1 [Compound 3]	–	900	102
